Laboratory results reported in patent US11135223B2, “Compositions and methods for inhibiting Dkk-1” (YALE UNIVERSITY, priority 2016, dated 2021).

B1: Dkk-1: Wnt antagonist Dickkopf-1 protein, expressed in CHO cells, added to cells or injected into mice (protein, UniProt O94907 32-266, looked up)
Dickkopf-related protein 1: TLNSVLNSNAIKNLPPPLGGAAGHPGSAVSAAPGILYPGGNKYQTIDNYQPYPCAEDEECGTDEYCASPTRGGDAGVQICLACRKRRKRCMRHAMCCPGNYCKNGICVSSDQNHFRGEIEETITESFGNDHSTLDGYSRRTTLSSKMYHTKGQEGSVCLRSSDCASGLCCARHFWSKICKPVLKEGQVCTKHRRKGSHGLEIFQRCYCGEGLSCRIQKDHHQASNSSRLHTCQRH

Experiments:
[1] = test system: leukocyte-platelet aggregate (CD45+CD41+ population); assay: Leukocyte-platelet aggregate (LPA) formation and PSGL-1 expression in peripheral blood, L. major infection; assay type: in vivo, mice
Excerpt: FIG. 12, comprising FIG. 12A through FIG. 12G, depicts results of experiments showing regulation of LPA formation by Dkk-1. FIG. 12A depicts AMNIS analysis of peripheral blood from 6-week old C57BL/6 male mice. FIG. 12B depicts flow cytometry analysis of the basal LPA population (CD45^+CD41^+) Dkk-1^d/d mice and their wildtype littermate controls. B-cell and CD4 T cell among CD45^+CD41^+ cells were monitored at the indicated time points in Dkk-1^d/d mice and their wildtype littermate controls challenged with 30 μg HDM extract/mouse. FIG. 12C depicts flow cytometry analysis of LPA formation in total CD45^+ cells, CD4 T cells, and neutrophils, in mice injected with Dkk-1 inhibitor (n=5) or DMSO vehicle (n=5) 24 hours prior to infection with L. major. FIG. 12D depicts flow cytometry analysis of peripheral blood at given time points for LPA formation in nine-week old C57BL/6 mice (n=5) injected with 300 ng of Dkk-1. […] Mean fluorescence intensity was normalized to unchallenged C57BL/6 mice. […] Normalized MFI for ICAM-1 expression and the percentages of LFA-1 high cells were measured by flow cytometry following injection of 300 ng of Dkk-1 intraperitoneally. […]
Human platelets were isolated as described from healthy volunteers (Tang et al., 2011, J Clin Invest 121:4462-76). […] Samples were analyzed by flow cytometry within 4 to 6 hours. […]

[2] = test system: leukocytes; assay: Exogenous administration of Dkk-1 protein to mice; assay type: in vivo, C57BL/6 mice
Method: FIG. 11, comprising FIG. 11A through FIG. 11J, depicts results of experiments showing Dkk-1 facilitates leukocyte migration and regulates leukocyte-platelet aggregate formation in type 2 inflammation. FIG. 11A depicts flow cytometry analysis of CD45^+ cells in lung homogenates from nine-week old Dkk-1^d/d mice and wildtype littermate controls (n=5-6/group) 72 hours after challenge with 30 μg HDM allergen extract. FIG. 11B depicts analysis of percentages of CD45^+CD41^+ cells in peripheral blood from nine-week old Dkk-1^d/d mice and wildtype littermate controls collected at 4 hours and 24 hours after allergen challenge. FIG. 11C depicts flow cytometry analysis of CD45+ cells after Dkk-1 protein (300 ng/mouse) was injected intraperitoneally. […]
FIG. 12, comprising FIG. 12A through FIG. 12G, depicts results of experiments showing regulation of LPA formation by Dkk-1. […] B-cell and CD4 T cell among CD45^+CD41^+ cells were monitored at the indicated time points in Dkk-1^d/d mice and their wildtype littermate controls challenged with 30 μg HDM extract/mouse. […] Mean fluorescence intensity was normalized to unchallenged C57BL/6 mice. […] Normalized MFI for ICAM-1 expression and the percentages of LFA-1 high cells were measured by flow cytometry following injection of 300 ng of Dkk-1 intraperitoneally. […]

Molecule	PSGL-1 expression on leukocytes ([1]; L. major infection, peripheral blood)	elevation of LPA formation ([1]; pretreatment 24 h prior to infection with L. major, 4 h post-infection)	LPA formation ([2]; 300 ng of Dkk-1, without allergen or parasite challenge)	number of infiltrated leukocytes in the lung ([2]; 300 ng/mouse intraperitoneally, 72 hours after administration)
NCC1CCN(c2nccc(-c3ccc4ccccc4c3)n2)CC1 [WAY-262611, (1-(4-(naphthalen-2-yl)pyrimidin-2-yl)piperidin-4-yl)methanamine]	blocked the increase	reduced		
B1			increased	did not increase
